Results published in patent publication US8841311B2, “Sulphone-substituted quinazoline derivatives as immuno-modulators, their preparation and use as medicaments” (Bayer Intellectual Property GmbH, priority 2008, dated 2014).

Tested on: TLR-induced TNF-α release in human peripheral blood mononuclear cells (PBMC)
Test: TLR-induced cytokine release in human PBMC (TNF-alpha, ELISA)
Assay type: cell-based
Settings: human PBMC stimulated with TLR ligand, 18 hours incubation
Method: TLR-Induced Cytokine Release in Human “Peripheral Blood Mononuclear Cells” (PBMC)
PBMCs isolated from human whole blood are stimulated using a TLR ligand.
The cytokine determination is carried out by means of ELISA kits; a proliferation/cell metabolism determination is carried out using Alamar Blue.
For the cell preparation, about 200 ml of blood are treated with an anticoagulant (e.g. citrate Monovettes). Per Leucosep tube, 15 ml of Histopaque (room temperature, RT) are poured in and pressed downwards through the frit employed by brief initial centrifugation (one minute at 1000×g, RT). 20 ml of blood are added to the tubes prepared in this way and centrifuged at 800×g for 15 minutes (RT). After centrifugation, the following layered arrangement results from the top to the bottom: plasma—PBMC Histopaque—filter disc—Histopaque—erythrocytes and granulocytes. The supernatant plasma is aspirated. The PBMC are transferred together with the underlying Histopaque to a new 50 ml tube, the contents of two Leucosep tubes always being added to one 50 ml tube. The 50 ml tubes are then filled to 50 ml with PBS. This cell suspension is centrifuged at 300×g (RT) for 10 minutes. The liquid supernatant is tipped off and the cell pellet is resuspended with a little PBS and subsequently filled to 50 ml with PBS. […] The metabolic activity of the treated cells is determined with the aid of Alamar Blue.

## COc1cc2c(NC(C)C)ncnc2cc1OCc1cccc(S(C)(=O)=O)c1 [Example 2.1, Isopropyl[7-(3-methanesulphonylbenzyloxy)-6-methoxyquinazolin-4-yl]amine]
  IC50: 3000 nM
